Measurements published in US20250326748A1, “COMPOUNDS AND METHODS FOR MODULATING SPLICING” (REMIX THERAPEUTICS INC., priority 2022, published 2025).
Where two headings read alike, the source gives them in different places.

Experiments:
[1] = tested on: HiBiT-tagged MYB protein; test: HiBiT protein abundance assay, MYB (K562 HiBiT knock-in); format: cell-based, human; conditions: HiBiT knock-in cells, 24 hours
Procedure: (§1) Compounds described herein were used to screen for effects on quantitative protein abundance using a HiBit assay system (Promega). Quantitative protein abundance was determined by measuring the protein levels of HiBit-tagged protein targets expressed in cell culture via luminescence using the Nano-Glo HiBiT Lytic Detection System, which uses a split complementation assay format to reconstitute NanoBiT enzyme to generate a luminescent signal. A protein abundance assay was developed such that endogenous protein targets could be modified with the HiBiT peptide tag and their abundance could be assessed after compound treatment. Briefly, K562 cell lines containing a HiBiT-modification were treated with various compounds described herein (e.g., compounds of Formulas (I), or (II)). After treatment for 24 hours, the protein abundance of a specific target was determined by measuring luminescence.
(§2) • Promega Nano-Glo HiBiT Lytic Detection System (cat #N3030) • Corning 384-well TC-treated microplates (cat #3570)
(§3) Cells were maintained in IMDM with 10% FBS. Before the assay, cells were diluted with […] growth media (IMDM+1% FBS media) and were seeded in a 384-well plate at a density of 10000 cells/well (for each cell line listed in Table 6). Each compound was prepared as a 10-point 3-old serial dilution in DMSO with the top dose at a final concentration of 10 μM in the well. Unmodified K562 cells were added at the previously specified density with DMSO to serve as an assay baseline and positive control (PC) and DMSO only with the respective modified cell lines was added to the negative control (NC) columns. Final DMSO concentration was kept at or below 0.25%. Treated cell plates were placed in an incubator at 37° C. with 5% CO2 for 24 hours. After 24 hours, 25 μL of Complete HiBit Lytic reagent was added to each well at room temperature (e.g. one plate requiring 10 ml Lytic Buffer, 100 μL LgBiT Protein, 200 μL Lytic Substrate), shaken for 5 minutes at 600 RPM, then left to sit for 10 minutes for signal to stabilize before reading on a Spark Cyto plate reader (Tecan) with a 500 ms measurement time.
(§4) To determine compound effects on protein abundance of each target in Table 6, the percent response for each respective cell line was calculated at each compound concentration as follows:
(§5) For the normalized response at each concentration, a four-parameter logistical regression was fit to the data and the response was interpolated at the 50% value to determine a concentration for protein abundance at 50% (IC50) the untreated control.

[2] = tested on: HiBiT-tagged HTT protein; test: HiBiT protein abundance assay, HTT (K562 HiBiT knock-in); format: cell-based, human; conditions: HiBiT knock-in cells, 24 hours
Procedure: as §1, §2, §3, §4, §5

[3] = tested on: Target C; test: HiBiT protein abundance assay, Target C (K562 HiBiT knock-in); format: cell-based, human; conditions: HiBiT knock-in cells, 24 hours
Procedure: as §3, §4, §5

[4] = tested on: K562 cells; test: Cell viability, Cell Titer Glo 2.0 assay, K562; conditions: 72 hours
Procedure: Compounds described herein were screened for toxicity in K562 (human chronic myelogenous leukemia) and SH-SY5Y (human neuroblastoma) cells using a Cell Titer Glo 2.0 assay.
• Promega CellTiter-Glo® 2.0 Cell Viability Assay (cat #G9241) • Corning 384-well TC-treated microplates (cat #3570)
Cells were plated at 500 cells/well (K562 cells) in 45 μL of IMDM supplemented with 10% FBS in a 384-well opaque plate. Wells containing only medium were used as a blank control. Test compounds (e.g., compounds of Formula (I) or (II)) were first serially diluted in DMSO then diluted 1:100 with IMDM+10% FBS. The final concentration of DMSO was 0.1% in each well. The cells were incubated for 72 hours at 37° C. and 5% CO2 before assaying with Cell Titer Glo 2.0 reagent.

[5] = tested on: HTT mRNA; test: Splicing RT-qPCR assay, HTT canonical (CJ) and alternative (AJ) junction mRNA; format: cell-based, human; conditions: Homo sapiens; for IC50: canonical junction mRNA; for AC50: alternative junction mRNA, read-out: HTT AJ (AC50, increase in AJ mRNA)
Outline: (§6)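 A673 cells (DMEM, 10% FBS) or K562 cells (IMDM, 10% FBS) were treated for 24 h at 37° C with an 11-point 3-fold dilution series, top dose 10 uM, DMSO ≤0.25%. Canonical and alternative junction mRNA was measured in lysates by one-step RT-qPCR. Normalization used PPIA for A673 and GAPDH or GUSB for K562.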

[6] = tested on: MYB mRNA; test: Splicing RT-qPCR assay, MYB canonical (CJ) and alternative (AJ) junction mRNA; format: cell-based, human; conditions: Homo sapiens; for IC50: canonical junction mRNA; for AC50: alternative junction mRNA, read-out: MYB AJ (AC50, increase in AJ mRNA)
Outline: as §6

[7] = tested on: SMN2 mRNA; test: Splicing RT-qPCR panel, SMN2 canonical junction (CJ) mRNA; format: cell-based, human; conditions: Homo sapiens, read-out: SMN2 CJ (decrease in CJ mRNA levels, IC50)
Procedure: Compounds described herein were used to modulate RNA transcript abundance in cells. The expression of a target mRNA was measured by detecting the formation of an exon-exon junction in the canonical transcript (CJ). A compound mediated exon-inclusion event was detected by observing an increase in formation of a new junction with an alternative exon (AJ). Real-time qPCR assays were used to detect these splicing switches and interrogate the potency of various compounds towards different target genes. A high-throughput real time quantitative PCR (RT-qPCR) assay was developed to measure these two isoforms of the mRNA (CJ and AJ) for exemplary genes, such as HTT, SMN2, and MYB, together with a control housekeeping gene, GAPDH or GUSB or PPIA, used for normalization. Briefly, the A673 or K562 cell line was treated with various compounds described herein (e.g., compounds of Formula (D). After treatment, the levels of the HTT, MYB, or SMN2 mRNA targets were determined from each sample of cell lysate by cDNA synthesis followed by qPCR.
The A673 cell line was cultured in DMEM with 10% FBS. Cells were diluted with full growth media and plated in a 96-well plate (15,000 cells in 100 ul media per well). The plate was incubated at 37° C. with 5% CO2 for 24 hours to allow cells to adhere. An 11-point 3-fold serial dilution of the compounds was made in DMSO then diluted in media in an intermediate plate. Compounds were transferred from the intermediate plate to the cell plate with the top dose at a final concentration of 10 uM in the well. Final DMSO concentration was kept at or below 0.25%. The cell plate was returned to the incubator at 37° C. with 5% CO2 for an additional 24 hours.
The K562 cell line was cultured in IMDM with 10% FBS. For K562, cells were diluted with full growth media and plated in either a 96-well plate (50,000 cells in 50 uL media per well) or a 384-well plate (8,000-40,000 cells in 45 uL media per well). An 11-point 3-fold serial dilution of the compounds were made in DMSO then diluted in media in an intermediate plate. Compound was transferred from the intermediate plate to the cell plate with the top dose at a final concentration of 10 uM in the well. Final DMSO concentration was kept at or below 0.25%. Final volume was 100 uL for 96-well plate and 50 uL for 384-well plate. The cell plate was then placed in an incubator at 37° C. with 5% CO2 for 24 hours.
The cells were then gently washed with 50 uL-100 uL cold PBS before proceeding to addition of lysis buffer. 30 uL-50 μL of room temperature lysis buffer with DNAse I (and optionally RNAsin) was added to each well. Cells were shaken/mixed thoroughly at room temperature for 5-10 minutes for lysis to take place and then 3 uL-5 μL of room temperature stop solution was added and wells were shaken/mixed again. After 2-5 minutes, the cell lysate plate was transferred to ice for RT-qPCR reaction setup. The lysates could also be frozen at −80° C. for later use.
In some cases, a direct lysis buffer was used. An appropriate volume of 3× lysis buffer (10 mM Tris, 150 mM NaCl, 1.5%-2.5% Igepal and 0.1-1 U/uL RNAsin, pH 7.4) was directly added to either K562 or A673 cells in media and mixed by pipetting 3 times. The plates were then incubated at room temperature with shaking/rocking for 20-50 minutes to allow for lysis to take place. After this time, the cell lysate plate was transferred to ice to set up for the RT-qPCR reactions. The lysates could also be frozen at −80° C. for later use.
To set up 10 uL RT-qPCR reactions, cell lysates were transferred to 384-well qPCR plates containing the master mix according to the table below. The plates were sealed, gently vortexed, and spun down before the run. The volumes were adjusted accordingly in some instances where the reaction was carried in 20 μL. The table below summarizes the components of the RT-qPCR reactions:
The RT-qPCR reaction was performed using a QuantStudio (ThermoFisher) under the following fast cycling conditions. […]

[8] = tested on: Target C mRNA; test: Splicing RT-qPCR panel, Target C canonical junction (CJ) mRNA; format: cell-based, human; conditions: Homo sapiens, read-out: Target C CJ (decrease in CJ mRNA levels, IC50)
Outline: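 A673 cells (DMEM, 10% FBS) or K562 cells (IMDM, 10% FBS) treated 24 h at 37 °C with an 11-point 3-fold dilution, top 10 uM, DMSO ≤0.25%. Canonical-junction mRNA quantified in lysates by RT-qPCR, normalised to GAPDH, GUSB or PPIA and to DMSO (2^−ΔΔCt), then converted to % response.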

[9] = 24 h, RT-qPCR, A673 or K562 cells, 24 hours treatment, read-out: HTT CJ (IC50, decrease in CJ mRNA)
[10] = qPCR panel, read-out: HTT CJ (decrease in CJ mRNA levels, IC50)
[11] = RT-qPCR, A673 or K562 cells, 24 hours treatment
[12] = qPCR panel, read-out: MYB CJ (decrease in CJ mRNA levels, IC50)
[13] = RT-qPCR, A673 or K562 cells, 24 hours treatment, read-out: MYB CJ (IC50, decrease in CJ mRNA)

Row | Structure (SMILES) | IC50 [1] [nM] | IC50 [2] [nM] | IC50 [3] [nM] | IC50 [5, 9] [µM] | IC50 [5, 10] [µM] | IC50 [6, 12] [nM] | IC50 [6, 13] [nM] | IC50 [7] [nM] | IC50 [8] [µM] | Effect on Cell Viability, K562 [4] | AC50 [5, 11] [µM] | AC50 [6, 11] [nM]
1 | CN[C@H]1CCN(c2cnc3nc(-c4cc5cn(C)nc5c(C)c4O)ccc3c2)C1 [Compound 111] | < 100 | < 100 | < 100 | – | – | – | – | – | – | A (<100 nM) | – | –
2 | Cc1cn2cc(-c3cc(Cl)c4cc(N5C[C@@H](C)NC6(CC6)C5)cnc4n3)cc(F)c2n1 [Compound 402] | – | – | – | > 10 | > 10 | 100 to 1000 | 100 to 1000 | < 100 | > 10 | C (1000-9999 nM) | > 10 | 100 to 1000
3 | CN1CCC[C@H]2CN(c3cnc4nc(-c5cc6cn(C)nc6cc5O)cc(Cl)c4c3)C[C@H]21 [Compound 372, 5-{6-[(4aS,7aS)-1-methyl-hexahydro-2H-pyrrolo[3,4-b]pyridin-6-yl]-4-chloro-1,8-naphthyridin-2-yl}-2-methylindazol-6-ol] | – | – | – | > 10 | > 10 | 100 to 1000 | 100 to 1000 | < 100 | > 10 | B (100-1000 nM) | > 10 | 100 to 1000
4 | Cn1cc2cc(-c3cnc4cc(C5CCNCC5)ccc4n3)c(O)c(F)c2n1 [Compound 167, 7-fluoro-2-methyl-5-[6-(piperidin-4-yl)quinoxalin-2-yl]indazol-6-ol] | < 100 | < 100 | < 100 | – | – | – | – | – | – | A (<100 nM) | – | –
5 | COc1nc(-c2cc(Cl)c3cc(N4C[C@H](C)N[C@@H](C)C4)cnc3n2)cn2cc(C)nc12 [Compound 403, 4-chloro-6-[(3S,5S)-3,5-dimethylpiperazin-1-yl]-2-{8-methoxy-2-methylimidazo[1,2-a]pyrazin-6-yl}-1,8-naphthyridine] | – | – | – | > 10 | > 10 | 1000 to 10000 | 1000 to 10000 | 100 to 1000 | > 10 | C (1000-9999 nM) | > 10 | 100 to 1000

Now from value to molecule, other results behind:

Row | IC50 [1] [nM] | IC50 [2] [nM] | IC50 [3] [nM] | IC50 [5, 9] [µM] | IC50 [5, 10] [µM] | IC50 [6, 12] [nM] | IC50 [6, 13] [nM] | IC50 [7] [nM] | IC50 [8] [µM] | Structure (SMILES) | Effect on Cell Viability, K562 [4] | AC50 [5, 11] [µM] | AC50 [6, 11] [nM]
6 | – | – | – | 1 to 10 | 1 to 10 | 100 to 1000 | 100 to 1000 | < 100 | 1 to 10 | C[C@H]1CN(c2cnc3nc(-c4cc(F)c5nn(C)cc5c4)cc(Cl)c3c2)CC2(CC2)N1 [Compound 396] | C (1000-9999 nM) | 1 to 10 | 100 to 1000
7 | – | – | – | 1 to 10 | 1 to 10 | 100 to 1000 | 100 to 1000 | < 100 | 1 to 10 | Cc1cn2nc(-c3cc(Cl)c4cc(N5C[C@H](C)NC6(CC6)C5)cnc4n3)cc(C)c2n1 [Compound 400] | C (1000-9999 nM) | 1 to 10 | 100 to 1000
8 | – | – | – | 1 to 10 | 1 to 10 | 100 to 1000 | 100 to 1000 | < 100 | 1 to 10 | C[C@H]1CN(c2cnc3nc(-c4cc(F)c5nn(C)cc5c4)ccc3c2)CCN1 [Compound 373, 2-(7-fluoro-2-methylindazol-5-yl)-6-[(3S)-3-methylpiperazin-1-yl]-1,8-naphthyridine] | B (100-1000 nM) | 1 to 10 | 100 to 1000
9 | – | – | – | 1 to 10 | 1 to 10 | 100 to 1000 | 100 to 1000 | < 100 | 1 to 10 | Cc1cn2cc(-c3cc(Cl)c4cc(N5C[C@H](C)NC6(CC6)C5)cnc4n3)cc(F)c2n1 [Compound 401] | C (1000-9999 nM) | 1 to 10 | 100 to 1000
10 | – | – | – | 1 to 10 | 1 to 10 | 100 to 1000 | 100 to 1000 | < 100 | > 10 | C[C@@H]1CN(c2cnc3nc(-c4cc(F)c5nn(C)cc5c4)cc(Cl)c3c2)CC2(CC2)N1 [Compound 397] | C (1000-9999 nM) | > 10 | 1000 to 10000
